From ChEMBL document CHEMBL5352412, “Discovery of 1,2-diphenylethene derivatives as human DNA topoisomerase II catalytic inhibitors and antitumor agents” (Eur J Med Chem, 2022)
Where “and” joins values, the source holds several entries; their conditions need not be identical. Equal entries are not always repeated. Calls of active or inactive are those of the source. No cut-off for these calls is given here.

Columns and labels:
[1] = molecular target: T1, DNA topoisomerase 2-alpha (Homo sapiens, UniProt P11388); assay: Inhibition of human topoisomerase 2-alpha using pBR322 DNA as substrate incubated for 30 mins in presence of 0.5 to 5 mM ATP (reference value: 2.9 microM)
MDA-MB-231 = assay: Antiproliferative activity against human MDA-MB-231 cells incubated for 72 hrs by CCK8 assay; type: functional, cell-based
HepG2 [2] = assay: Antiproliferative activity against human HepG2 cells incubated for 72 hrs by CCK8 assay; type: functional, cell-based
[3] = molecular target: T1, DNA topoisomerase 2-alpha; assay: Inhibition of human topoisomerase 2-alpha assessed as reduction in relaxation of pBR322 DNA at 100 uM measured after 30 mins by agarose gel electrophoresis method relative to control
[4] = molecular target: T1, DNA topoisomerase 2-alpha; assay: Inhibition of human topoisomerase 2-alpha assessed as reduction in relaxation of pBR322 DNA at 25 uM measured after 30 mins by agarose gel electrophoresis method relative to control
HeLa = assay: Antiproliferative activity against human HeLa cells incubated for 72 hrs by CCK8 assay; type: functional, cell-based
HCT-116 = assay: Antiproliferative activity against human HCT-116 cells incubated for 72 hrs by CCK8 assay; type: functional, cell-based; details: HCT-116, 72 h
PC-3 = assay: Antiproliferative activity against human PC-3 cells incubated for 72 hrs by CCK8 assay; type: functional, cell-based; details: PC-3, 72 h
[5] = Antiproliferative activity against human CCL-226 cells incubated for 72 hrs by CCK8 assay; type: toxicity, cell-based
[6] = Antiproliferative activity against human BEAS-2B cells incubated for 72 hrs by CCK8 assay; type: toxicity, cell-based
[7] = Antiproliferative activity against human HL7702 cells incubated for 72 hrs by CCK8 assay; type: toxicity, cell-based; details: HL7702 (L02) cells
Homo sapiens [8] = species: Homo sapiens; assay: Selectivity index, ratio of IC50 for human CCL-226 cells to IC50 for human HeLa cells
Homo sapiens [9] = species: Homo sapiens; assay: Selectivity index, ratio of IC50 for human CCL-226 cells to IC50 for human HCT-116 cells
Homo sapiens [10] = species: Homo sapiens; assay: Selectivity index, ratio of IC50 for human CCL-226 cells to IC50 for human PC-3 cells
Homo sapiens [11] = species: Homo sapiens; assay: Selectivity index, ratio of IC50 for human CCL-226 cells to IC50 for human MDA-MB-231 cells
Homo sapiens [12] = species: Homo sapiens; assay: Selectivity index, ratio of IC50 for human CCL-226 cells to IC50 for human HepG2 cells
Homo sapiens [13] = species: Homo sapiens; assay: Selectivity index, ratio of IC50 for human CCL-226 cells to IC50 for human A549 cells
[14] = Selectivity index, ratio of IC50 for human BEAS-2B cells to IC50 for human HeLa cells; type: toxicity; details: BEAS-2B cells versus HeLa cells, read-out: Ratio IC50
[15] = Selectivity index, ratio of IC50 for human BEAS-2B cells to IC50 for human HCT-116 cells; type: toxicity; details: BEAS-2B cells versus HCT-116 cells, read-out: Ratio IC50
[16] = Selectivity index, ratio of IC50 for human BEAS-2B cells to IC50 for human PC-3 cells; type: toxicity; details: BEAS-2B cells versus PC-3 cells, read-out: Ratio IC50
[17] = Selectivity index, ratio of IC50 for human BEAS-2B cells to IC50 for human MDA-MB-231 cells; type: toxicity; details: BEAS-2B cells versus MDA-MB-231 cells, read-out: Ratio IC50
[18] = Selectivity index, ratio of IC50 for human BEAS-2B cells to IC50 for human HepG2 cells; type: toxicity; details: BEAS-2B cells versus HepG2 cells, read-out: Ratio IC50
[19] = Selectivity index, ratio of IC50 for human BEAS-2B cells to IC50 for human A549 cells; type: toxicity; details: BEAS-2B cells versus A549 cells, read-out: Ratio IC50
[20] = Selectivity index, ratio of IC50 for human HL-7702 cells to IC50 for human HeLa cells; type: toxicity; details: HL-7702 cells versus HeLa cells, read-out: Ratio IC50
[21] = Selectivity index, ratio of IC50 for human HL-7702 cells to IC50 for human HCT-116 cells; type: toxicity; details: HL-7702 cells versus HCT-116 cells, read-out: Ratio IC50
[22] = Selectivity index, ratio of IC50 for human HL-7702 cells to IC50 for human PC-3 cells; type: toxicity; details: HL-7702 cells versus PC-3 cells, read-out: Ratio IC50
[23] = Selectivity index, ratio of IC50 for human HL-7702 cells to IC50 for human MDA-MB-231 cells; type: toxicity; details: HL-7702 cells versus MDA-MB-231 cells, read-out: Ratio IC50
[24] = Selectivity index, ratio of IC50 for human HL-7702 cells to IC50 for human HepG2 cells; type: toxicity; details: HL-7702 cells versus HepG2 cells, read-out: Ratio IC50
[25] = Selectivity index, ratio of IC50 for human HL-7702 cells to IC50 for human A549 cells; type: toxicity; details: HL-7702 cells versus A549 cells, read-out: Ratio IC50
[26] = molecular target: T1, DNA topoisomerase 2-alpha; assay: Inhibition of human topoisomerase 2-alpha assessed as DNA intercalation at 100 to 200 uM using pBR322 DNA as substrate measured after 30 mins by agarose gel electrophoresis analysis; details: dose 100-200 µM
A549 = assay: Antiproliferative activity against human A549 cells incubated for 72 hrs by CCK8 assay; type: functional, cell-based; details: A549, 72 h
[27] = molecular target: T1, DNA topoisomerase 2-alpha; assay: Poison activity at human topoisomerase 2-alpha assessed as linear DNA formation at 100 to 200 microM; details: dose 100-200 µM
HepG2 [28] = assay: Upregulation of gamma-H2AX level in human HepG2 cells incubated for 4 hrs by Western blotting analysis; type: functional, cell-based
[29] = molecular target: T1, DNA topoisomerase 2-alpha; assay: Inhibition of human topoisomerase 2-alpha using pBR322 DNA as substrate incubated for 1 hr in presence of ATP by malachite green phosphate method
[30] = molecular target: T1, DNA topoisomerase 2-alpha; assay: Inhibition of human topoisomerase 2-alpha assessed as reduction in relaxation of pBR322 DNA measured after 30 mins by agarose gel electrophoresis method
DNA topoisomerase 2-beta = DNA topoisomerase 2-beta (Homo sapiens, UniProt Q02880); assay: Inhibition of human topoisomerase 2-beta assessed as reduction in relaxation of pBR322 DNA measured after 30 mins by agarose gel electrophoresis method
HepG2 [31] = assay: Induction of cell cycle arrest in human HepG2 cells assessed as accumulation of cells at G1 phase at 1 uM incubated for 24 hrs by PI staining based flow cytometry analysis (reference value: 54%); type: functional
HepG2 [32] = assay: Induction of cell cycle arrest in human HepG2 cells assessed as accumulation of cells at S phase at 1 uM incubated for 24 hrs by PI staining based flow cytometry analysis (reference value: 28.2%); type: functional
HepG2 [33] = assay: Induction of cell cycle arrest in human HepG2 cells assessed as accumulation of cells at G2/M phase at 1 uM incubated for 24 hrs by PI staining based flow cytometry analysis (reference value: 17.5%); type: functional
[34] = Toxicity in C57BL/6J mouse assessed as change in body weight at 500 mg/kg administered via gavage twice at day 1 and measured for 7 days; type: organism-based; details: in vivo, po, 168 h, time 7 day
[35] = Toxicity in C57BL/6J mouse assessed as animal death at 500 mg/kg administered via gavage twice at day 1 and measured for 7 days; type: organism-based; details: in vivo, po, time 7 day, read-out: Activity
HepG2 [36] = assay: Induction of apoptosis in human HepG2 cells assessed as viable cells at 5 uM incubated for 24 hrs by annexin-V FITC and PI staining based flow cytometry analysis (reference value: 93.8%); type: functional; details: read-out: Activity
HepG2 [37] = assay: Induction of apoptosis in human HepG2 cells assessed as early apoptotic cells at 5 uM incubated for 24 hrs by annexin-V FITC and PI staining based flow cytometry analysis (reference value: 3.7%); type: functional
HepG2 [38] = assay: Induction of apoptosis in human HepG2 cells assessed as late apoptotic cells at 5 uM incubated for 24 hrs by annexin-V FITC and PI staining based flow cytometry analysis (reference value: 2.3%); type: functional
HepG2 [39] = assay: Induction of apoptosis in human HepG2 cells assessed as necrotic cells at 5 uM incubated for 24 hrs by annexin-V FITC and PI staining based flow cytometry analysis (reference value: 0.2%); type: functional

T1 sequence (P11388 whole entry): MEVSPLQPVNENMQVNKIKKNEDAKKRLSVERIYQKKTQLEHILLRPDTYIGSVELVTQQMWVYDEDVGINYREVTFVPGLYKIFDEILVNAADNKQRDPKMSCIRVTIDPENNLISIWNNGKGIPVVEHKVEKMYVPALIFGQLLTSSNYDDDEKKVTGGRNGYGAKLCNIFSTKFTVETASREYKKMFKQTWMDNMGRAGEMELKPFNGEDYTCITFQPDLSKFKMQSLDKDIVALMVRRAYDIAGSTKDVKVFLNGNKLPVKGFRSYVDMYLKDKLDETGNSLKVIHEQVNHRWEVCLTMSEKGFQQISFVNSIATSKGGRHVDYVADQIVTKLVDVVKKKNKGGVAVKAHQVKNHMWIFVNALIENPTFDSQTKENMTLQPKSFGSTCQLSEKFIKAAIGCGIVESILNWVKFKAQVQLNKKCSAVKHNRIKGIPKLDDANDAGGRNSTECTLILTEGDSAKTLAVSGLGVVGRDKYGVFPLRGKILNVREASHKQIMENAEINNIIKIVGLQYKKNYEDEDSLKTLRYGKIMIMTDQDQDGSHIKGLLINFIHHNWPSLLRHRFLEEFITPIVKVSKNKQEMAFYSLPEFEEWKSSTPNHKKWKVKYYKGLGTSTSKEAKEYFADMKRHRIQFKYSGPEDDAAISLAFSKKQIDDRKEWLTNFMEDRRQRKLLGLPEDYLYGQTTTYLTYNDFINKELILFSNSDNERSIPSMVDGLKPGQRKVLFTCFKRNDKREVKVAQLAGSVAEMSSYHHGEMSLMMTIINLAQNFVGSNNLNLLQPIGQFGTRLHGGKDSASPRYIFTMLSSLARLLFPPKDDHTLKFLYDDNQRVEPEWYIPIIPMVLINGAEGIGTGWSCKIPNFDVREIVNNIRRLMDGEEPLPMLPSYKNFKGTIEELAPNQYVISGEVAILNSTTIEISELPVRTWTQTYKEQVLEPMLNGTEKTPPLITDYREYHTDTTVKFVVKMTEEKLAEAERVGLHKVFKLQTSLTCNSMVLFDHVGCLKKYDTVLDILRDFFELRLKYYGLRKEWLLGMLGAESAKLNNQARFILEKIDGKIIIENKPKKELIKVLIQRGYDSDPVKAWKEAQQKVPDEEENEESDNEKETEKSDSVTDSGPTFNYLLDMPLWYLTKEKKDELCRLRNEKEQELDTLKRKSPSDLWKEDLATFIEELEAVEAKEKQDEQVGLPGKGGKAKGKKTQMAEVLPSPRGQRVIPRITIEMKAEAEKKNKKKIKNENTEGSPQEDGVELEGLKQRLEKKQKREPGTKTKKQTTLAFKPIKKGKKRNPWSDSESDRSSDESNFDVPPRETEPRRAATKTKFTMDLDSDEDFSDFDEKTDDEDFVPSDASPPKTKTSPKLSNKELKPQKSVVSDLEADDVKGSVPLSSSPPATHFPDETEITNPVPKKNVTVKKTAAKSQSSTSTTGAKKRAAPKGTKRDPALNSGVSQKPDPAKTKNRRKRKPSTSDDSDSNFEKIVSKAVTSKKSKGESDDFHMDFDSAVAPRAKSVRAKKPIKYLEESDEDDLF
DNA topoisomerase 2-beta, sequence (Q02880 whole entry): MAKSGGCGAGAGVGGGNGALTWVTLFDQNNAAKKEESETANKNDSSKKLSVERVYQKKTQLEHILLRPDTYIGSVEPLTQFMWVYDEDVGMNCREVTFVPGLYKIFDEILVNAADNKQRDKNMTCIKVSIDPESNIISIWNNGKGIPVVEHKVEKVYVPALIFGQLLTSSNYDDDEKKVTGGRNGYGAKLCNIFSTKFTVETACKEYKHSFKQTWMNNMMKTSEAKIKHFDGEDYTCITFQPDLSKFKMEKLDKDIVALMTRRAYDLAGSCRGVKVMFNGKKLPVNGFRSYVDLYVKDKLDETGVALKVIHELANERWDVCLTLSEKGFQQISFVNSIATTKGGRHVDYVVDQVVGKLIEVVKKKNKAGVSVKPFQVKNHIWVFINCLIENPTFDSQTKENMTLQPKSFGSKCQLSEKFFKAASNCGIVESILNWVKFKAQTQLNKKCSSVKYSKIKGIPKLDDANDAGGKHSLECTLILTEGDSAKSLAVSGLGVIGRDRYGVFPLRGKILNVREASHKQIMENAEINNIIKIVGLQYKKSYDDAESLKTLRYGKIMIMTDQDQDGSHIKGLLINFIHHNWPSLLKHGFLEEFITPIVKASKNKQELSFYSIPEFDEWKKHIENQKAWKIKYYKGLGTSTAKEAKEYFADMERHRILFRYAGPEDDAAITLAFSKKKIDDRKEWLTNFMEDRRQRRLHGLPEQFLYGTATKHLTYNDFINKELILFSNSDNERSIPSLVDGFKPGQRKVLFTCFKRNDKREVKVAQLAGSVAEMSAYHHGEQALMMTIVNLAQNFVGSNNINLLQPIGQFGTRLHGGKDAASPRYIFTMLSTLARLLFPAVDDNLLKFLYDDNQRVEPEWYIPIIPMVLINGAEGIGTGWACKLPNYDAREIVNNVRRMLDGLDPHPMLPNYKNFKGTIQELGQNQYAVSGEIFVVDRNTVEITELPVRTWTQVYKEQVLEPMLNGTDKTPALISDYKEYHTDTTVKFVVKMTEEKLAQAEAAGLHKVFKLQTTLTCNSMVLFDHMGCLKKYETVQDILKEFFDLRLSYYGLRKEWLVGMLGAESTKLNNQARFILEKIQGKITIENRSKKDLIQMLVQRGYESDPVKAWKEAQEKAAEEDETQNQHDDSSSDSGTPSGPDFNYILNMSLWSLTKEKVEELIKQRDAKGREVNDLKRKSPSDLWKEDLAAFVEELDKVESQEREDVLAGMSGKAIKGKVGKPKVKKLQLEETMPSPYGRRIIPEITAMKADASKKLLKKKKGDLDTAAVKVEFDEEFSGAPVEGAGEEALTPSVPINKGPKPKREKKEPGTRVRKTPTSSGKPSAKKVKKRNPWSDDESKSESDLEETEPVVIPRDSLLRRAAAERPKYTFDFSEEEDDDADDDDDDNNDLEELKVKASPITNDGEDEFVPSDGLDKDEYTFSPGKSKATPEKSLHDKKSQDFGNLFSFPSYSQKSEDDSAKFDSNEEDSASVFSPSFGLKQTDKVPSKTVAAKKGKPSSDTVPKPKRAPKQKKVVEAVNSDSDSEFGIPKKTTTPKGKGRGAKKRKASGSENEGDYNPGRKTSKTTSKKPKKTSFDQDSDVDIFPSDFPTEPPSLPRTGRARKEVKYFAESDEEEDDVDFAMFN

| Structure (SMILES) | IC50 (MDA-MB-231; Homo sapiens, MDA-MB-231, 72 h) | IC50 (HepG2 [2]; Homo sapiens, HepG2, 72 h) | inhibition [3] | inhibition [4] | IC50 (HeLa) | IC50 (HCT-116) | IC50 (PC-3) | IC50 at 72 h [5] | IC50 at 72 h [6] | IC50 at 72 h [7] | Ratio IC50 (Homo sapiens [8]) | Ratio IC50 (Homo sapiens [9]) | Ratio IC50 (Homo sapiens [10]) | Ratio IC50 (Homo sapiens [11]) | Ratio IC50 (Homo sapiens [12]) | Ratio IC50 (Homo sapiens [13]) | selectivity ratio [14] | selectivity ratio [15] | selectivity ratio [16] | IC50 (A549) | further results |
| --- | --- | --- | --- | --- | --- | --- | --- | --- | --- | --- | --- | --- | --- | --- | --- | --- | --- | --- | --- | --- | --- |
| O=C(/C=C/c1ccccc1)Nc1ccc(-c2ccc3cc(O)ccc3c2)cc1 | 0.8 µM | 0.7 µM | 81% | 86.2% | 0.5 µM | 0.6 µM | 0.9 µM | > 50 µM | 26.9 µM | > 50 µM | > 28.1 | > 28.1 | > 28.1 | > 28.1 | > 28.1 | > 28.1 | > 28.1 | > 28.1 | > 28.1 | 1 µM | IC50 [1]: 8.6 µM; selectivity ratio [17]: > 28.1; selectivity ratio [18]: > 28.1; selectivity ratio [19]: > 28.1; selectivity ratio [20]: > 28.1; selectivity ratio [21]: > 28.1; selectivity ratio [22]: > 28.1; selectivity ratio [23]: > 28.1; selectivity ratio [24]: > 28.1; selectivity ratio [25]: > 28.1; inhibition [26]: inactive; Activity [27]: inactive; Activity (HepG2 [28]): inactive; inhibition [29]: Dose-Dependent Effect; IC50 [30]: 3.3 µM; IC50 (DNA topoisomerase 2-beta): 17.2 µM |
| O=C(/C=C/c1ccccc1)Nc1ccc(/C=C/c2cc(O)cc(O)c2)cc1 | 4.1 µM | 2.4 µM | 82.6% and 76.1% | 71.2% and 61.6% | 1.9 µM | 2.1 µM | 2.3 µM | > 50 µM | > 50 µM | 37.8 µM | > 9.2 | > 9.2 | > 9.2 | > 9.2 | > 9.2 | > 9.2 | > 9.2 | > 9.2 | > 9.2 | 4.1 µM | IC50 (MDA-MB-231; mda-mb-231): 3.6 µM; IC50 (HepG2 [2]; hepg2): 2.9 µM; selectivity ratio [17]: > 9.2; selectivity ratio [18]: > 9.2; selectivity ratio [19]: > 9.2; selectivity ratio [20]: > 9.2; selectivity ratio [21]: > 9.2; selectivity ratio [22]: > 9.2; selectivity ratio [23]: > 9.2; selectivity ratio [24]: > 9.2; selectivity ratio [25]: > 9.2; IC50 [30]: 16.6 µM; IC50 (DNA topoisomerase 2-beta): 195 µM |
| COc1cc([C@@H]2c3cc4c(cc3[C@@H](O[C@@H]3O[C@@H]5CO[C@@H](C)O[C@H]5[C@H](O)[C@H]3O)[C@H]3COC(=O)[C@H]23)OCO4)cc(OC)c1O [ETOPOSIDE] | 5.6 µM | 8.1 µM | 43.3% |  | 1.5 µM | 2.4 µM | 3 µM | 20.8 µM | 21 µM | 39.1 µM |  |  |  |  |  |  |  |  |  | 15.1 µM | inhibition [26]: inactive; Activity ([27]; filed as activator): Active; Activity (HepG2 [28]): Active; Activity (HepG2 [31]): 1.1%; Activity (HepG2 [32]): 73.7%; Activity (HepG2 [33]): 25.2%; Activity [34]: Toxic; mortality at 168 h [35]: 33.3%; viability at 5 µM (HepG2 [36]): 76.9%; Activity (HepG2 [37]): 10.7%; Activity (HepG2 [38]): 11.8%; Activity (HepG2 [39]): 0.6% |
